Assays:
Assay in all cases: Bliss excess, mean over the matrix (fraction); higher = more synergy
[1] = test system: KCL-22 (Chronic Myelogenous Leukemia)
Summary of the method: (§1)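 Bliss excess equals the observed combination effect minus the expected value EA + EB − EA·EB, where EA and EB are the effects of each agent alone. Combination Emax is the second-highest inhibition within the matrix. Inhibition was scaled from CellTiter-Glo 2.0 luminescence, with 0 set by vehicle wells and 1 by blank wells, after 72 hours of two-drug dosing of cells plated in 1536-well plates.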

[2] = test system: DiFi (Colorectal Carcinoma)
Summary of the method: as §1

[3] = test system: MOLT-16 (T-Lymphoblastic Leukemia)
Summary of the method: as §1

WM-115 (Melanoma) = test system: WM-115 (Melanoma)
Summary of the method: as §1

NCI-H2818 (Mesothelioma) = test system: NCI-H2818 (Mesothelioma)
Summary of the method: as §1

[4] = test system: COLO-678 (Colorectal Carcinoma)
Summary of the method: as §1

[5] = test system: BL-41 (Burkitt's Lymphoma)
Summary of the method: as §1

[6] = test system: SR (Other Blood Carcinomas)
Summary of the method: as §1

[7] = test system: SW837 (Colorectal Carcinoma)
Summary of the method: as §1

[8] = test system: EVSA-T (Breast Carcinoma)
Summary of the method: as §1

[9] = test system: GR-ST (B-Lymphoblastic Leukemia)
Summary of the method: as §1

[10] = test system: KARPAS-45 (T-Lymphoblastic Leukemia)
Summary of the method: as §1

[11] = test system: SW1417 (Colorectal Carcinoma)
Summary of the method: as §1

[12] = test system: HL-60 (Acute Myeloid Leukemia)
Summary of the method: as §1

[13] = test system: MS751 (Cervical Carcinoma)
Summary of the method: as §1

MEL-JUSO (Melanoma) = test system: MEL-JUSO (Melanoma)
Summary of the method: as §1

LN-18 (Glioblastoma) = test system: LN-18 (Glioblastoma)
Summary of the method: as §1

ES8 (Ewing's Sarcoma) = test system: ES8 (Ewing's Sarcoma)
Summary of the method: as §1

[14] = test system: TOV-112D (Ovarian Carcinoma)
Summary of the method: as §1

C[C@@H]1COCCN1c1cc(C2([S@](C)(=N)=O)CC2)nc(-c2ccnc3[nH]ccc23)n1 [AZD6738] + O=C(c1cc(Cc2n[nH]c(=O)c3ccccc23)ccc1F)N1CCN(C(=O)C2CC2)CC1 [Olaparib] (first compound max 10 µM, 7x7, partner max 10 µM) gave a Bliss excess [1] of -0.0454, a Bliss excess [2] of 0.0033 and a Bliss excess [3] of -0.0064. It also gave a Bliss excess (WM-115 (Melanoma)) of 0.0166, a Bliss excess (NCI-H2818 (Mesothelioma)) of 0.0285 and a Bliss excess [4] of -0.0046. For the same compound, the Bliss excess [5] was -0.0556, the Bliss excess [6] was 0.024 and the Bliss excess [7] was 0.0093. It also gave a Bliss excess [8] of 0.0017, a Bliss excess [9] of -0.0471 and a Bliss excess [10] of 0.0023. It also gave a Bliss excess [11] of 0.0033, a Bliss excess [12] of -0.0275 and a Bliss excess [13] of 0.0114. The Bliss excess (MEL-JUSO (Melanoma)) was 0.0118, the Bliss excess (LN-18 (Glioblastoma)) was 0.0598 and the Bliss excess (ES8 (Ewing's Sarcoma)) was 0.0543. For the same compound, the Bliss excess [14] was 0.0206.

Cc1cc2ncnn2cc1Nc1ncc2c(n1)n(C1CCOCC1)c(=O)n2C [AZD7648] + C=CCn1c(=O)c2cnc(Nc3ccc(N4CCN(C)CC4)cc3)nc2n1-c1cccc(C(C)(C)O)n1 [AZD1775] (first compound max 10 µM, partner max 1 µM) showed a Bliss excess [1] of 0.0015, a Bliss excess [2] of -0.0013 and a Bliss excess [3] of 0.0163. The Bliss excess (WM-115 (Melanoma)) was 0.0217, the Bliss excess (NCI-H2818 (Mesothelioma)) was 0.0563 and the Bliss excess [4] was -0.0224. The Bliss excess [5] was -0.0511, the Bliss excess [6] was -0.0375 and the Bliss excess [7] was 0.0241. It also gave a Bliss excess [8] of -0.024, a Bliss excess [9] of -0.117 and a Bliss excess [10] of 0.0367. The Bliss excess [11] was -0.0328, the Bliss excess [12] was -0.0457 and the Bliss excess [13] was 0.0245. It also gave a Bliss excess (MEL-JUSO (Melanoma)) of 0.0263, a Bliss excess (LN-18 (Glioblastoma)) of 0.0161 and a Bliss excess (ES8 (Ewing's Sarcoma)) of -0.0014. For the same compound, the Bliss excess [14] was -0.0325.

For Cc1cc2ncnn2cc1Nc1ncc2c(n1)n(C1CCOCC1)c(=O)n2C [AZD7648] + CCN(CCO)CCCOc1ccc2c(Nc3cc(CC(=O)Nc4cccc(F)c4)[nH]n3)ncnc2c1 [AZD2811] (first compound max 10 µM, 7x7, partner max 1 µM), the Bliss excess [1] was 0.115, the Bliss excess [2] was 0.005 and the Bliss excess [3] was 0.0058. For the same compound, the Bliss excess (WM-115 (Melanoma)) was 0.0205, the Bliss excess (NCI-H2818 (Mesothelioma)) was 0.0283 and the Bliss excess [4] was -0.0119. The Bliss excess [5] was 0.0668, the Bliss excess [6] was -0.0225 and the Bliss excess [7] was 0.0018. For the same compound, the Bliss excess [8] was 0.0122, the Bliss excess [9] was -0.0705 and the Bliss excess [10] was -0.0341. The Bliss excess [11] was -0.106, the Bliss excess [12] was -0.0639 and the Bliss excess [13] was -0.0094. It also gave a Bliss excess (MEL-JUSO (Melanoma)) of 0.0461, a Bliss excess (LN-18 (Glioblastoma)) of 0.0208 and a Bliss excess (ES8 (Ewing's Sarcoma)) of -0.011. It also gave a Bliss excess [14] of 0.0263.

Cc1cc2ncnn2cc1Nc1ncc2c(n1)n(C1CCOCC1)c(=O)n2C [AZD7648] + CN(C)CCCOc1ccc(-c2ccc3ncc4c(c3c2)n(C2CCOCC2)c(=O)n4C)cn1 [AZD0156] (first compound max 10 µM, 7x7, partner max 1 µM) was tested, and the Bliss excess [1] was 0.0542, the Bliss excess [2] was -0.0119 and the Bliss excess [3] was 0.0841. For the same compound, the Bliss excess (WM-115 (Melanoma)) was -0.0098, the Bliss excess (NCI-H2818 (Mesothelioma)) was -0.0055 and the Bliss excess [4] was -0.0231. It also gave a Bliss excess [5] of 0.0154, a Bliss excess [6] of 0.0078 and a Bliss excess [7] of 0.0255. The Bliss excess [8] was -0.0126, the Bliss excess [9] was -0.0687 and the Bliss excess [10] was -0.0274. For the same compound, the Bliss excess [11] was -0.0262, the Bliss excess [12] was 0.0176 and the Bliss excess [13] was 0.0217. The Bliss excess (MEL-JUSO (Melanoma)) was -0.0029, the Bliss excess (LN-18 (Glioblastoma)) was 0.0013 and the Bliss excess (ES8 (Ewing's Sarcoma)) was 0.0803. The Bliss excess [14] was 0.0307.

Work on Cc1cc2ncnn2cc1Nc1ncc2c(n1)n(C1CCOCC1)c(=O)n2C [AZD7648] + C[C@@H]1COCCN1C2=NC(=NC(=C2)C3(CC3)[S@](=N)(=O)C)C4=C5C=CNC5=NC=C4 [AZD6738] (first compound max 10 µM, 7x7, partner max 10 µM) yielded a Bliss excess [1] of 0.0341, a Bliss excess [2] of 0.0639 and a Bliss excess [3] of -0.0368. The Bliss excess (WM-115 (Melanoma)) was 0.0145, the Bliss excess (NCI-H2818 (Mesothelioma)) was 0.0738 and the Bliss excess [4] was -0.0346. It also gave a Bliss excess [5] of -0.0052, a Bliss excess [6] of 0.0148 and a Bliss excess [7] of -0.0077. It also gave a Bliss excess [8] of 0.0622, a Bliss excess [9] of -0.116 and a Bliss excess [10] of 0.0129. The Bliss excess [11] was 0.0175, the Bliss excess [12] was -0.0079 and the Bliss excess [13] was 0.0606. For the same compound, the Bliss excess (MEL-JUSO (Melanoma)) was 0.0289, the Bliss excess (LN-18 (Glioblastoma)) was -0.0084 and the Bliss excess (ES8 (Ewing's Sarcoma)) was 0.0071. For the same compound, the Bliss excess [14] was 0.0024.

Cc1cc2ncnn2cc1Nc1ncc2c(n1)n(C1CCOCC1)c(=O)n2C [AZD7648] + O=C(c1cc(Cc2n[nH]c(=O)c3ccccc23)ccc1F)N1CCN(C(=O)C2CC2)CC1 [Olaparib] (first compound max 10 µM, 7x7, partner max 10 µM) was tested, and the Bliss excess [1] was -0.0367, the Bliss excess [2] was -0.0484 and the Bliss excess [3] was -0.019. The Bliss excess (WM-115 (Melanoma)) was -0.0391, the Bliss excess (NCI-H2818 (Mesothelioma)) was -0.0776 and the Bliss excess [4] was -0.0177. For the same compound, the Bliss excess [5] was -0.0368, the Bliss excess [6] was 0.0433 and the Bliss excess [7] was -0.0246. It also gave a Bliss excess [8] of -0.0077, a Bliss excess [9] of -0.0706 and a Bliss excess [10] of 0.0031. For the same compound, the Bliss excess [11] was -0.0597, the Bliss excess [12] was -0.0151 and the Bliss excess [13] was 0.0017. For the same compound, the Bliss excess (MEL-JUSO (Melanoma)) was -0.0264, the Bliss excess (LN-18 (Glioblastoma)) was -0.0351 and the Bliss excess (ES8 (Ewing's Sarcoma)) was -0.0626. The Bliss excess [14] was -0.0285.

With COc1cccc2c1C(=O)c1c(O)c3c(c(O)c1C2=O)C[C@@](O)(C(=O)CO)C[C@@H]3O[C@H]1C[C@H](N)[C@H](O)[C@H](C)O1 [Doxorubicin] + Cc1cc2ncnn2cc1Nc1ncc2c(n1)n(C1CCOCC1)c(=O)n2C [AZD7648] (first compound max 1 µM, 7x7, partner max 10 µM) the Bliss excess [1] was 0.086, the Bliss excess [2] was 0.051 and the Bliss excess [3] was 0.143. It also gave a Bliss excess (WM-115 (Melanoma)) of -0.0234, a Bliss excess (NCI-H2818 (Mesothelioma)) of -0.0019 and a Bliss excess [4] of 0.0188. It also gave a Bliss excess [5] of 0.0714, a Bliss excess [6] of 0.0651 and a Bliss excess [7] of 0.0068. For the same compound, the Bliss excess [8] was 0.0503, the Bliss excess [9] was 0.0279 and the Bliss excess [10] was -0.0006. It also gave a Bliss excess [11] of 0.0216, a Bliss excess [12] of 0.108 and a Bliss excess [13] of 0.135. It also gave a Bliss excess (MEL-JUSO (Melanoma)) of 0.0309, a Bliss excess (LN-18 (Glioblastoma)) of 0.0386 and a Bliss excess (ES8 (Ewing's Sarcoma)) of 0.125. The Bliss excess [14] was 0.0679.

With CCc1c2c(nc3ccc(O)cc13)-c1cc3c(c(=O)n1C2)COC(=O)[C@]3(O)CC [SN-38] + O=C(c1cc(Cc2n[nH]c(=O)c3ccccc23)ccc1F)N1CCN(C(=O)C2CC2)CC1 [Olaparib] (first compound max 0.3 µM, 7x7, partner max 10 µM) the Bliss excess [1] was 0.0525, the Bliss excess [2] was 0.0423 and the Bliss excess (WM-115 (Melanoma)) was 0.0847. For the same compound, the Bliss excess (NCI-H2818 (Mesothelioma)) was 0.0548, the Bliss excess [4] was 0.0487 and the Bliss excess [5] was 0.0462. It also gave a Bliss excess [6] of 0.0614, a Bliss excess [7] of 0.0302 and a Bliss excess [8] of 0.0738. For the same compound, the Bliss excess [9] was -0.05, the Bliss excess [11] was 0.0174 and the Bliss excess [13] was 0.053. For the same compound, the Bliss excess (ES8 (Ewing's Sarcoma)) was 0.0636 and the Bliss excess [14] was 0.0453.

— the supplement of paper PMC11061612
